Entries after “also recorded” stand apart in the source; their conditions may differ.
Legend:
[1] = tested on: PDK1; assay: PDK1 assay: activation of GST-PKBα by purified PDK1 with phospholipid vesicles; format: biochemical, rabbit; details: lipid 10 μM in vesicles of 100 μM PtdCho, 100 μM PtdSer; 30 min at 30° C.
Method in brief: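 Two-stage assay: GST-PKBα incubated with PDK1, MgATP and phospholipid vesicles to allow activation. Reactions run 10 min at 30 °C, stopped on p81 phosphocellulose paper and washed in phosphoric acid. Basal GST-PKBα activity measured without PDK1.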

[2] = target: T1, GST-PDK1 (Homo sapiens, UniProt O15530); assay: GST-PDK1 assay: activation and phosphorylation of GST-PKBα; format: biochemical; details: lipid 10 μM in PtdCho/PtdSer vesicles
T1 construct: Residues 52-556 of PDK1 were expressed in human embryonic kidney 293 cells; made in house; host or cells: human embryonic kidney 293 cells (pEBG2T)
T1 sequence (O15530 52-556): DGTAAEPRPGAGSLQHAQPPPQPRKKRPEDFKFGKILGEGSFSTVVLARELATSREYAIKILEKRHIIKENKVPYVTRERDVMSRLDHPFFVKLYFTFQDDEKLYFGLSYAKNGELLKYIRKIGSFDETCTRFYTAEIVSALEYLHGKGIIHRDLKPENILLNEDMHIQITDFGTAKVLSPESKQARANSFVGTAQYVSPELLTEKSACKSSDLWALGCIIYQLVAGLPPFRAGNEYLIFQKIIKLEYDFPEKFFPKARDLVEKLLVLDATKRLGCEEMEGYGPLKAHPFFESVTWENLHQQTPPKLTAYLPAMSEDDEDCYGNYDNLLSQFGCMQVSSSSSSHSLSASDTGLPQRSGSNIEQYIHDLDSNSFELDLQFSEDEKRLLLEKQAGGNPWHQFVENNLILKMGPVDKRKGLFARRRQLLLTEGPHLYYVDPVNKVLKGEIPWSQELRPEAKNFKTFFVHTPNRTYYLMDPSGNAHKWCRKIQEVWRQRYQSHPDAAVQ
Protocol: (§1) FIG. 12. […] In panels A and C, the assays were terminated by making the incubations 1% (by vol) in TRITON X-100™ (see Ref 21), and the increase in specific activity of GST-PKBα was determined. In panels B and D, the reactions were terminated by making the solutions 1% in SDS, the samples were subjected to SDS/polyacrylamide gel electrophoresis, and the phosphorylation was assessed by autoradiography of the Coomassie blue-stained band corresponding to GST-PKBα.
(§2) One unit of PDK1 activity was defined as that amount required to increase the basal activity of GST-PKBα by 1 unit of activity in one min.

[3] = target: T2, GST-DSTPK61 (Drosophila melanogaster, UniProt Q9W0V1); assay: GST-DSTPK61 assay: activation and phosphorylation of GST-PKBα; format: biochemical; details: lipid 10 μM in PtdCho/PtdSer vesicles
T2 construct: residues 1-752 of DSTPK61 in E. coli as fusion proteins; made in house; host or cells: E. coli (pGEX-3X)
Protocol: as §1, §2

[4] = target: T3, PDK1 (Homo sapiens, UniProt O15530); assay: Direct binding of PtdIns(3,4,5)P3 to PDK1
T3 sequence (O15530 1-556): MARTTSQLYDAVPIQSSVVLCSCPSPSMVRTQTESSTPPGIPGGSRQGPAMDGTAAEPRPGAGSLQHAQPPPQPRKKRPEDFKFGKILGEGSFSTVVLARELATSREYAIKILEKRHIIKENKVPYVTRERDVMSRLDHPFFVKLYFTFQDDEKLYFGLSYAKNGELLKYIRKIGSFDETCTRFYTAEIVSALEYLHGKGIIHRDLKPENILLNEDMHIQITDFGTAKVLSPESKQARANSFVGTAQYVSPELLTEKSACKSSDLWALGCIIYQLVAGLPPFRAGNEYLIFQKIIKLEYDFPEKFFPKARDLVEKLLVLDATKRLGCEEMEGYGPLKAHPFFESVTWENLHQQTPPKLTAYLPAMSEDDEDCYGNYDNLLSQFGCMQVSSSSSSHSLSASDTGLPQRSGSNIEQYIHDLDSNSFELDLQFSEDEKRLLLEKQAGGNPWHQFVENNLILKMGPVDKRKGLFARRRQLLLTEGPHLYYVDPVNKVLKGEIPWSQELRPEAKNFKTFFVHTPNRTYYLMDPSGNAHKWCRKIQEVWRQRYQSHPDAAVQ

[5] = tested on: GST-PKBα; assay: Activation of GST-PKBα after stimulation of transfected 293 cells; format: cell-based, human; details: versus unstimulated 293 cells
From the text: Expression of GST-PKBα in 293 cells. The DNA sequence encoding PKBα was subcloned into the eukaryotic expression vector PEBG2T that has been used to overexpress GST-fusion proteins in eukaryotic cells under an EF1α promoter. A PCR reaction was set up to generate a full length cDNA encoding the PKBα gene with a BamH1site at the 5′ end of the cDNA that is in frame with the GST sequence of the PEBG2T vector and the ATG initiation codon of PKBα, and a KpnI site at the 3′ end, using the human PCMV5-HA-PKBα plasmid. The DNA sequence of the BamH1/KpnI cDNA fragment was checked and then subcloned into the unique BamH1/KpnI restriction sites on the pEBG 2T expression vector. In order to prepare GST-PKBα, 40, 10 cm diameter dishes of human embryonic kidney 293 cells were cultured and each dish transfected with 20 μg of GST PKBα expression construct using the modified calcium phosphate method described previously for overexpression of haemaglutinin tagged PKBα in 293 cells. […]

[6] = tested on: HA-PKBα; assay: HA-PKBα activity in transfected 293 cells; format: cell-based, human
Protocol: FIG. 14. PKBα is activated by cotransfection with PDK1 in 293 cells. (A) 293 cells were transiently transfected with DNA constructs expressing either HA-PKBα or both HA-PKBα and Myc-PDK1. The cells were then stimulated for 10 min with or without 50 ng/ml IGF1, the HA-PKBα immunoprecipitated from the lysates and assayed. The results are expressed relative to the specific activity of wild type HA-PKBα in unstimulated 293 cells ([…]). No PKBα activity was detected in mock transfections in which the cells were transfected with PCMV5 vector alone (data not shown). (B) 6 μg of protein from each lysate was electrophoresed on a 10% SDS/polyacrylamide gel and immunoblotted using either a monoclonal HA-antibody to detect HA-PKBα or a monoclonal Myc-antibody to detect Myc-PDK1. The molecular mass markers are glycogen phosphorylase (97 kDa), bovine serum albumin (67 kDa) and ovalbumin (43 kDa).
Transfection of 293 cells with HA-tagged PBKα and Myc-PDK1. Human embryonic kidney 293 cells were cultured on 10 cm diameter dishes and transfected with 2 μg/ml pCMV5 DNA constructs encoding for HA-PKBα or HA-PKBα plus Myc-PDK1 [20]. After 24 h the cells were deprived of serum for a further 16 h and then stimulated for 10 min with either […] IGF1 or Buffer. The cells were lysed in 1.0 ml of ice-cold Buffer A, the lysate centrifuged at 4° C. for 10 min at 13,000×g and HA-PKBα immunoprecipitated from aliquots of the supernatant (10 μg protein) and assayed for PKBα with the peptide RPRAATF (SEQ ID NO: 9) as described previously.

[7] = tested on: HA-PKBα; assay: 32P-labelling of transfected 293 cells: phosphorylation sites of HA-PKBα; format: cell-based, human; details: 293 cells cotransfected with PDK1
Protocol: FIG. 15. Overexpression of PDK1 in cells induces phosphorylation of PKBα at Thr308. 293 cells transiently transfected with either wild type HA-PKBα (panels A and C) or HA-PKBα and Myc-PDK1 (panels B and D) were incubated with ^32P-orthophosphate, then treated for 10 min without (panels A and B) or with (panels C and D) 50 ng/ml IGF1. The ^32P-labelled HA-PKBα was immunoprecipitated from the lysates, treated with 4-vinylpyridine, and electrophoresed on 1 10% polyacrylamide gel. The HA-PKBα was excised from the gel, digested with trypsin and chromatographed on a C18 column (see legend to FIG. 13) to resolve the four major phosphopeptides which are phosphorylated at Ser-124, Ser473, Thr308 and Thr450 respectively. The identity of each phosphopeptide was established by phospho-amino acid analysis and solid phase sequencing. Similar results were obtained in two separate experiments for (panels A and C), and in three separate experiments (panels B and D).
(§3) ^32P-labelling of 293 cells transfected with HA-PKBα or Myc-PDK1. This was carried out essentially as described previously. Briefly, 293 cells were transfected with HA-PKBα, or with HA-PKBα plus Myc-PDK1, washed with phosphate free DMEM, incubated for 4 h with [^32P]-orthophosphate (1 mCi/ml), then stimulated with IGF1 (50 ng/ml) for 5 min. The cells were lysed, and the HA-PKBα immunoprecipitated (using 10 μg of 12CAS antibody per 10 cm dish of cells) or the Myc-PDK1 immunoprecipitated (using 10 μg of 9E10 antibody per 10 cm dish of cells). The immunoprecipitated protein was alkylated with 4-vinylpyridine, subjected to SDS/polyacrylamide gel electrophoresis, digested with trypsin and analysed by chromatography on a C18 column (Alessi et al (1996) EMBO J. 15, 6541-6551).

[8] = tested on: PDK1; assay: Endogenous PDK1 activity in lysates of IGF1-stimulated 293 cells; format: cell-based, human; details: up to 10 min
Protocol: PDK1 is not activated or phosphorylated by IGF1. 293 cells were serum starved for 16 h, stimulated with IGF1 lysed and the endogenous PDK1 activity present in the cell lysates was determined after chromatography on heparin-Sepharose (see Methods).

[9] = tested on: Myc-PDK1; assay: 32P-labelling of 293 cells: phosphorylation of Myc-PDK1; format: cell-based, human; details: 5 min
Protocol: as §3
In order to see if IGF1 stimulation was inducing the phosphorylation of PDK1, 293 cells were transfected with Myc-PDK1 (encoding residues 52 to 556), incubated with ^32P-phosphate, stimulated with buffer or IGF1 for 5 min and ^32P-labelled Myc-PDK1 was immunoprecipitated from the lysates. After digestion with trypsin, the resulting peptides were analysed by C18 chromatography. […] One of the in vivo phosphorylation sites on PDK1 was identified as Ser-241 which lies in the equivalent position to Thr308 of PKB in the kinase domain.

T2 sequence (Q9W0V1 85-836 Q200H/Q201E/Q317A/G443R): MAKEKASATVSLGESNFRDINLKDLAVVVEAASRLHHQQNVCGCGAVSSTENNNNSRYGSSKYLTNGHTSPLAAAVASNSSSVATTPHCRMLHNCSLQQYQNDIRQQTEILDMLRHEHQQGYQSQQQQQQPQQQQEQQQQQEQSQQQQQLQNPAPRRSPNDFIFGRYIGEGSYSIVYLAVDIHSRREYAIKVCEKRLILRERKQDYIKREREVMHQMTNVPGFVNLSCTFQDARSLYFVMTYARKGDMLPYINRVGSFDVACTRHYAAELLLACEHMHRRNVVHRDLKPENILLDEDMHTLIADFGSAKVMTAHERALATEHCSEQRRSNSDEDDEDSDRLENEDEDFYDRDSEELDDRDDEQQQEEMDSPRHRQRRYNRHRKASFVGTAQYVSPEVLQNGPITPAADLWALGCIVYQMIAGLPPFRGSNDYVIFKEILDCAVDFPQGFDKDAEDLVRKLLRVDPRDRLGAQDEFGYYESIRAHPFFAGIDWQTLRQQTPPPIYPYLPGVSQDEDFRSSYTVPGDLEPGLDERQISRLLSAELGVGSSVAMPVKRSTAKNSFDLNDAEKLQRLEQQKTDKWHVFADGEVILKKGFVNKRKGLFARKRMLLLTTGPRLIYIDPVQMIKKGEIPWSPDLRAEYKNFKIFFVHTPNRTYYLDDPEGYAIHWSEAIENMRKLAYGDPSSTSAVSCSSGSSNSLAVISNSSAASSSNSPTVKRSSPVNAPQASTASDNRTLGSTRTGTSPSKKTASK

In the case of “Phosphatidylinositol 3,4,5-tris phosphate [PtdIns(3,4,5)P3]”, the “activation of PDK1 (in words)” value [1] is reported as “only active in the presence of low micromolar concentrations”, the “activation and phosphorylation of GST-PKBα by GST-PDK1 (in words)” value [2] is reported as “activated and phosphorylated GST-PKBα” and the “activation and phosphorylation of GST-PKBα by GST-DSTPK61 (in words)” value [3] is reported as “activated and phosphorylated GST-PKBα”. For the same substance, the “binding to PDK1 (in words)” value [4] was “bind PtdIns(3,4,5)P3 directly”.
With “IGF1: growth factor IGF1 used to stimulate 293 cells” the “fold activation of GST-PKBα after stimulation of 293 cells” value [5] was 45 fold, the “fold increase of HA-PKBα activity after stimulation” value ([6]; 293 cells transfected with HA-PKBα alone, 10 min) was 40 fold and the “fold increase of HA-PKBα activity after stimulation” value ([6]; 293 cells transfected with both HA-PKBα and Myc-PDK1) was 70 fold. The “further fold increase of Thr308 phosphorylation of HA-PKBα” value [7] was 4 fold, the “endogenous PDK1 activity after stimulation of 293 cells” value [8] was “did not result in any activation or inhibition; also recorded: did not affect” and the “phosphorylation of Myc-PDK1 tryptic peptides after stimulation of 293 cells” value [9] was “does not alter the phosphorylation; also recorded: did not affect”.
